As a reminder, the melting point is the temperature, or range, at which the solid turns liquid.

The compound `CN(C)C(=O)c1ccc([N+](=O)[O-])cc1S(=O)(=O)Cl` showed a melting point of 129 to 131 °C.

In turn, `NC(=O)c1c(Cl)c(-c2ccccc2)n2c1CN(C(=O)CCC1CCCC1)CC2` yielded a melting point of 172 to 174 °C.

For the compound `NC(=O)C1CN(CCCCN(c2ccc(F)cc2)c2ccc(F)cc2)CCN1` (configuration not stated), the melting point stood at 67.4 °C.

In turn, `CCSC1=C(c2ccc(O)cc2)C(=O)c2cc(O)ccc21` had a melting point of 78 to 81 °C.

For the compound `Cc1cccc2c1C(=O)N1CCCC1C(=O)N2` (configuration not stated), the melting point is 212 to 214 °C.

`CC(C)C1=Cc2cc(OCC(=O)O)c(Cl)c(Cl)c2C1=O` had a melting point of 176 °C.

Compound `CCCN(c1ncnc2[nH]cnc12)n1cccc1` showed a melting point of 181 to 183 °C.

`COc1ccc(C(=O)N2CCNC2=Nc2c(Cl)cccc2Cl)cc1OC` yielded a melting point of 201 to 204 °C.

`CCC(CC)c1cccc2nc(C(O)c3c(C)cc(C)cc3C)n(C)c12` (configuration not stated) showed a melting point of 132 to 134 °C.

As to `CC(=NNc1ccc(C2=NNC(=O)CC2)cc1)c1ccnnc1`, the melting point lay in the range of 258 to 260 °C.

In turn, `COc1cccc(C=CC(=O)C2C(=O)OC(=O)C(C(C)=O)=C2O)c1OC` (configuration not stated) displayed a melting point of 175 to 176 °C.

As for `N#CCCNC(=O)c1cccc(-c2ccc3ncn(Cc4ccc(Cl)cc4Cl)c3n2)c1`, the melting point lay in the range of 218 to 219 °C.

`COC(=O)c1cc(NC(=N)N)c(NC(C)=O)c(Br)c1O`: the melting point is 238 to 240 °C.

`Cc1ncc(C(=O)Nc2ccc(-n3nc(C(F)(F)F)cc3C3CC3)cc2)c(C)n1` displayed a melting point of 145 to 147 °C.

The compound `O=C(O)C(c1ccc2c(c1)OCO2)n1nc(C2CC2)cc(-c2ccccc2)c1=O` (configuration not stated) registered a melting point of 176 °C.

The compound `CCCCCS(=O)(=O)NC(=O)/C(C)=C/c1ccc(OCCOC)cc1Oc1ncc(C(F)(F)F)cc1Cl` yielded a melting point of 108 to 111 °C.

In turn, `O=Cc1ccnc(OCC=CCNC(=O)CS(=O)Cc2ccco2)c1` (configuration not stated) showed a melting point of 67.6 to 69.9 °C.

On to `CC/C(=C\C=C\C(O)(C(F)(F)F)C(F)(F)F)c1cccc(CCc2ccc(CO)c(CO)c2)c1`, for which the melting point was 104 °C.

On to `CCSc1cnc(OCCOc2ncnc(NS(=O)(=O)c3ccc(C(C)(C)C)cc3)c2-c2ccc(C)cc2)nc1`, for which the melting point was 177 to 178 °C.

Regarding `O=C(Nc1cc(-c2nc(-c3ccco3)no2)ccc1Cl)OCC(Cl)(Cl)Cl`, the melting point fell in the range of 114 to 116 °C.

`O=C(c1ccn(S(=O)(=O)c2ccccc2)c1)c1ccc(Cl)cc1Cl`: the melting point turned out to be 122 °C.

The compound `CC(=NOc1ccc(F)cc1)c1cc(Cl)ccc1NS(=O)(=O)C(F)(F)F` displayed a melting point of 71 to 73 °C.

Regarding `CCn1cc(C2CCC(=O)CC2)c2cc(C#N)ccc21`, the melting point was 124 °C.

The compound `CC(C)c1c(O)cccc1O` had a melting point of 79 to 82 °C.

Consider `O=C1CC(c2cccc(-n3ccnn3)c2)=Nc2ccc(-c3ccc(F)cc3)cc2N1`, for which the melting point was 218 to 220 °C.

`COc1cc2c(cc1Nc1ncc(Cl)c(Nc3ccccc3S(=O)(=O)C(C)C)n1)CCN(CC(=O)N(C)C)CC2`: the melting point is 83 to 94 °C.

Take `CC1(C)OCC(CNc2c([N+](=O)[O-])cnc3cc(OCc4ccccc4)ccc23)O1` (configuration not stated): the melting point lay in the range of 154 to 155 °C.

As to `O=C(O)c1cc(-c2ccc(OC(F)(F)F)cc2)c2c3c(ccc2c1)OCO3`, the melting point was 296 to 300 °C.

The compound `Cc1cc2c(c3c1NC(=O)CC3)O[C@@H](CN)[C@H]2C` (racemic) registered a melting point above 300 °C.

`CCCc1c(OCCCSc2nnc(SCC(=O)N(C)O)s2)ccc(C(C)=O)c1O` showed a melting point of 97 to 99 °C.

`O=C1Nc2ccc(I)cc2C1=NNC(=O)c1ccc(Oc2ccccc2)cc1`: the melting point was determined as 296 °C.

For the compound `COc1cc2c(cc1OC)C(=CC(N)=O)NCC2`, the melting point was in the range of 156 to 158 °C.

As for `COCN1C(C)=NC(C)=C(C(=O)NCCCN2CCC(C(=O)OC)(c3ccccc3)CC2)C1c1ccc(F)c(F)c1` (configuration not stated), the melting point lay within 53 to 57 °C.

`CC(C)Cc1cccc(CCCn2c(=O)[nH]c3cc(Cl)cc(Cl)c3c2=O)c1` had a melting point of 167 to 172 °C.

For the compound `COc1ccc(C(=O)Nc2nc3ccc(N(C)C)cc3c(NCc3ccccc3)c2C#N)cc1`, the melting point was found to be 185 °C.

Regarding `COc1ccc(CCNC(=O)C(F)(F)F)cc1S(=O)(=O)N=CN(C)C`, the melting point was 143 to 144 °C.

With `COC(=O)CC/C(C)=C/Cc1c(N)c2c(c(C)c1OC)COC2=O`, the melting point lay in the range of 91 to 93 °C.

`Cc1ccc(C(=O)c2cccc3c2CCC3=O)cc1`: the melting point was 105 to 108 °C.

As for `CC(=O)Nc1nc(CN2CCN(C(c3ccccc3)c3ccccc3)CC2)cs1`, the melting point was 178 to 179 °C.

`COc1ccc(-c2cnc(NS(=O)(=O)Cc3ccccc3)c(Cc3ccccc3)n2)cc1` yielded a melting point of 213 to 215 °C.

Consider `O=C(O)CCN1C(=O)c2cccc([N+](=O)[O-])c2C1=O`, for which the melting point was 146 to 148 °C.

The compound `COC1=C(OC)C(=O)c2c(cccc2[N+](=O)[O-])C1=O` displayed a melting point of 156 to 157 °C.

Take `N#Cc1cc(C(=O)c2ccccc2)ccc1O`: the melting point lay within 185 to 186 °C.

With `Cc1c2c(nc3ccccc13)CCN(C(N)=S)CC2`, the melting point came to 218 °C.

For the compound `O=C(O)c1ccc(N2CCCCC2)c(NC(=O)C(CS)Cc2ccccc2)c1` (configuration not stated), the melting point was 142 to 146 °C.

The compound `COC(=O)c1cc2ccccc2n1C1=CC(C)(C)Oc2ccc(C#N)cc21` came in with a melting point of 197 to 200 °C.

The compound `CCCCOc1ccccc1C(=O)C=Cc1cc(OC)cc(OC)c1` displayed a melting point of 69.5 to 70.1 °C.

For `Cc1cc(-n2nc(C#N)cc2-c2ccc(S(C)(=O)=O)cc2)ccc1Br`, the melting point is 152 °C.

`COC(=O)c1ccc(C(=O)N2CCN(C(=O)c3ccc(C(=O)OC)cc3)CC2)cc1` yielded a melting point of 234 to 237 °C.

`COc1ccc(N2C(=O)O[C@H](CO)[C@@H]2C)cc1` had a melting point of 99 to 101 °C.

As to `CC(C)(C)c1ccc2sc3cc(-c4nnn[nH]4)ccc3c(=O)c2c1`, the melting point turned out to be 277 °C.

Regarding `Cn1cc2c(c1)-c1ccc(Cl)cc1C(c1ccccc1F)=NC2`, the melting point was 142 to 144 °C.

In turn, `Nc1nonc1NCCCOc1cccc(CN2CCCCC2)c1` gave a melting point of 87 to 88 °C.

`CN(c1cccc2cc(C3=NCC(CO)S3)[nH]c12)S(=O)(=O)c1cccs1` (configuration not stated): the melting point was in the range of 207 to 208 °C.

`CCCn1nc(-c2cnc(N)nc2-c2ccccc2)ccc1=O`: the melting point lay in the range of 188 to 189 °C.

`CS(=O)(=O)c1ccc(C(CC2CCCC2)C(=O)Nc2ncc[nH]2)cc1[N+](=O)[O-]` (configuration not stated) showed a melting point of 243 to 244 °C.

`Cc1cc(Cl)cc(C(=O)NC2(C)CS(=O)(=O)C2)c1NC(=O)c1cc(C(F)(F)F)nn1-c1ncccc1Cl` registered a melting point of 168 to 171 °C.

With `C=C(C)C(=O)Oc1cc(C(=O)OCC)cc(O)c1O`, the melting point is 106 to 108 °C.

For the compound `CCCOc1cccc(C2(c3cccs3)N=C(N)N(C)C2=O)c1` (configuration not stated), the melting point fell in the range of 79 to 81 °C.

In turn, `CCCCNC(=O)N(C)c1cccc(-c2ccc(C=C(OC)C(=O)O)cc2)c1` came in with a melting point of 146 °C.

Regarding `Clc1ccc(Oc2ccc(Cl)nn2)cc1`, the melting point came out at 119 °C.

As for `O=C1c2ccccc2C(=O)N1CC(Br)(c1ccccc1)C(F)Br` (configuration not stated), the melting point was in the range of 163 to 164 °C.

`COc1ccccc1NC(=O)NC1N=C(c2ccc(Cl)cc2)c2c(sc(C)c2C)-n2c(C)nnc21` (configuration not stated) showed a melting point of 261 to 262 °C.

For the compound `COCCOC(=O)C1=C(C)NC(C)=C(C(=O)OC(C)C)C1c1ccccc1F` (configuration not stated), the melting point was in the range of 99 to 100 °C.

Take `Cc1ccc(S(=O)(=O)NC(CCCCNC(=O)OCc2ccccc2)C(=O)O)cc1` (configuration not stated): the melting point is 120 to 121 °C.

`CCOc1ccc(Nc2nc(NCc3ccco3)nc(Nc3ccc(O)cc3)n2)cc1`: the melting point lay within 43 to 45 °C.

As to `Cc1c(CNCC2CCOCC2)n(C)c2c(F)c(NC(=O)c3ccc(OC[C@@H]4CCCO4)cc3)ccc12`, the melting point was 132 to 134 °C.

Regarding `O=c1[nH]c2sc3ccc(Br)cc3c2[nH]c1=O`, the melting point is above 320 °C.

`CCOC(=O)NC(=S)OCc1ccc(Cl)cc1`: the melting point amounted to 95 °C.

`C=CCOC(=O)C1=C(C)NC(C)=C(C(=O)OC)C1c1cc(Br)c(OC)c(OC)c1` (configuration not stated) gave a melting point of 123 to 124 °C.

The compound `COc1ccc(CC#N)c2c1OCCO2` showed a melting point of 121 to 125 °C.

The compound `COc1ccc(-c2nc3n(c2-c2ccc(OC)cc2)C(F)C(F)(F)S3)cc1` (configuration not stated) registered a melting point of 160 to 162 °C.

Turning to `CCCCC=C1SC(=S)N(N=c2sc3ccccc3s2)C1=O`, the melting point is 210 to 212 °C.

In turn, `CCCN(CCCC(=O)Nc1c(C(C)C)nc(C)nc1N(CC)CC)c1ccccc1` displayed a melting point of 129 to 131 °C.

With `C=Cc1ccc(CC(=O)O)cc1`, the melting point stood at 94 °C.

Compound `CC(=O)c1cccc(Oc2ncccc2C(=O)NCC2CCC(C(C)(C)O)CC2)c1` (configuration not stated) returned a melting point of 105 to 107 °C.

On to `NC(=O)C1CN(Cc2nc(-c3ccccc3)c(-c3ccccc3)o2)CCN1CC(=O)Nc1c(Cl)cc(N)cc1Cl` (configuration not stated), for which the melting point was in the range of 137 to 139 °C.

Compound `COC(=O)c1ccc2cc(-c3ccc(OC)cc3)oc2c1` registered a melting point of 163 to 164 °C.

`Cn1nc2c(oc3ccccc32)c1NC=O`: the melting point lay in the range of 184 to 187 °C.

`CN(C)CCOc1ccc(N2C(=O)C=C3CCCCC32)cc1` (configuration not stated) showed a melting point of 90 °C.

On to `O=C1Nc2ccc(C(F)(F)F)cc2C1c1ncnc2c1cnn2C1CCCCC1` (configuration not stated), for which the melting point is above 300 °C.

In turn, `COc1cc(N=C=S)nc(OC)c1` had a melting point of 85 to 86 °C.

Compound `O=C(O)c1ncn2c(C(F)F)cc(-c3ccc(C(F)(F)F)cc3)nc12` displayed a melting point of 238 °C.

As for `Cc1noc(NS(=O)(=O)c2ccsc2C(=O)NCc2ccccc2)c1Br`, the melting point was 186 to 190 °C.

Turning to `CC(C)=CCc1c(O)n2c3c(nc2n(Cc2ccccc2)c1=O)N(C)CN(C)C3=O`, the melting point is 153 to 154 °C.

In the case of `CN1CCN(C(=O)Nc2ccccc2NC(=O)c2cc(C(C)(C)C)c(O)c(C(C)(C)C)c2)CC1`, the melting point lay within 160 to 161 °C.

With `Cc1cc2c(c3ccc(=O)[nH]c13)OC(CNC(=O)CCNC(=O)OCc1ccccc1)C2` (configuration not stated), the melting point lay within 233 to 234 °C.

The values above are taken from a melting point compilation (Tetko et al.; mined from patent text by program, amines drawn as free bases though some values may be those of a salt).
